Test system: Clostridium acetobutylicum strain ATCC 824
Test: antibiotic sensitivity test (MIC, OD600 in 96-well plate, anaerobic)
Assay type: cell-based
Details: for MIC (final concentration of chloramphenicol): after 24 h of growth
Description: Bacterial culture conditions and strains have been previously published. All strains and cultures were maintained or grown in an atmosphere of 5.0% H2, 5.0% CO2, and 90.0% N2. Clostridium acetobutylicum strain ATCC 824 was obtained from ATCC and cultured using company protocol at 37° C. into Clostridial growth medium or CGM containing 0.75 g KH2PO4, 0.75 g K2HPO4, 1.0 g NaCl, 0.017 g MnSO4.5H2O, 0.70 g MgSO4.7H2O, 0.01 g FeSO4.7H2O, 2.0 g 1-asparagine, 5.0 g yeast extract, 2.0 g (NH4)2SO4, and 0.5% final concentration of desired carbohydrate—D-glucose, D-galacturonic acid, D-gluconic acid—at pH 6.5. Active cultures from initial growth stock were added to potato glucose medium to be maintained and stored as a spore solution. Potato glucose medium or PGM contains per liter of H2O—150 g grated fresh potato, 10 g D-glucose, 0.5 g (NH4)SO4, and 3 g CaCO3. The medium was boiled for 1 hour and strained through gauze before sterilization and use for culture. Spore solution was activated for culturing through a heat shock at 80° C. for 9 minutes. Shocked spore solution was added to CGM containing the feed stock of choice and grown to late log of 0.8 at optical density of 600 nm (OD600) at 37° C. Theses cultures were then used to perform antibiotic sensitivity experiments.
The protocol for antibiotic sensitivity test was performed as follows in anaerobic conditions: 200 μL of CGM medium containing either 0.5% D-galacturonate or D-glucose was aliquoted into a sterile Costar® 96-well polystyrene flat bottom plate in triplicate per test condition. Chloroamphenicol was dissolved in ethanol at different concentrations. Each chloroamphenicol concentration was added to each well in triplicate and considered a test condition. Test conditions included addition of 1 μL of ethanol, 1 of sterile water, 1 μL 0.1 mg mL^−1, 1 μL 0.25 mg mL^−1, 1 μL 0.5 mg mL^−1, 1 μL 1 mg mL^−1, 1 μL 2.5 mg mL^−1, 1 μL 5 mg mL^−1, 1 μL 10 mg mL^−1, 1 μL 20 mg mL^−1, and 1 μL 10 mg mL^−1. […] The optical density of the cultures in the wells were measured at 600 nm via a commercially available plate reader. […]

MIC (final concentration of chloramphenicol) (C. acetobutylicum grown in CGM with 0.5% D-galacturonate (galacturonic acid) as feedstock): 2.4 µg/mL | MIC (final concentration of chloramphenicol) (C. acetobutylicum grown in CGM with 0.5% D-glucose as feedstock): 23.7 µg/mL
SMILES: O=C(N[C@H](CO)[C@H](O)c1ccc([N+](=O)[O-])cc1)C(Cl)Cl [chloramphenicol]
increase of antibiotic susceptibility with oxidized feed stock compared to glucose as feed stock (C. acetobutylicum, in vitro, galacturonate vs glucose): 10 fold
